Read-outs that look alike come from different tables or passages of the source.
How the values were obtained:
[1] = molecular target: NS3/NS4 complexes (Hepatitis C virus genotype 1a, UniProt P27958); test: NS3/NS4 inhibition activity (IC50); assay type: biochemical
In short: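 Buffer: 50 mM Tris-HCl (pH 7.5), 10 mM DTT, 25 μM NS4A peptide, 0.6 mM LDAO and 15% glycerol. Assays were run at 23 °C with preformed NS3/NS4 complex, and the compound concentration giving inhibition was derived as an IC50.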

[2] = test system: hepatitis C replicon; test: hepatitis C replicon EC50; assay type: cell-based; conditions: Hepatitis C virus, hepatitis C replicon, read-out: EC50
Description: NS3-NS4 inhibition activity can be determined using known assay methods.

NS3/NS4 complexes, sequence (P27958 1027-1657): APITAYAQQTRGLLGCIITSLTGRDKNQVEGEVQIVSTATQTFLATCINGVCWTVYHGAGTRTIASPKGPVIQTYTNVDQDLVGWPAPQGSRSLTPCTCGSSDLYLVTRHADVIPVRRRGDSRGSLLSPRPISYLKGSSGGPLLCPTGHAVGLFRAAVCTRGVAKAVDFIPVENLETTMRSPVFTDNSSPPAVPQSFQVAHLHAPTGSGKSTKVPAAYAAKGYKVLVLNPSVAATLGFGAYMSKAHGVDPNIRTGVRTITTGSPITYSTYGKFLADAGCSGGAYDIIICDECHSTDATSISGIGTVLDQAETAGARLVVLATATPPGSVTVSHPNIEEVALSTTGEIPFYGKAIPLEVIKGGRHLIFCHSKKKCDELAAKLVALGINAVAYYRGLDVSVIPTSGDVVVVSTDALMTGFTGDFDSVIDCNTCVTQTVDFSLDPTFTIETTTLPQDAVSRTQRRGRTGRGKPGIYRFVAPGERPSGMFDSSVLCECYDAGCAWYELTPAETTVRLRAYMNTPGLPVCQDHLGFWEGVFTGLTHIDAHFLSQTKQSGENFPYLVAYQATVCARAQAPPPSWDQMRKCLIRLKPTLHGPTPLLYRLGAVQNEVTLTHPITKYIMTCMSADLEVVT
NS3/NS4 complexes, sequence (P27958 1658-1711): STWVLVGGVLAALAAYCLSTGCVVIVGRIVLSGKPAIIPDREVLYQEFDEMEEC

Row | Compound | IC50 ([1]; Table 3, read-out: IC50) | EC50 ([2]; Table 3) | IC50 ([1]; Table 2, read-out: IC50) | EC50 ([2]; Table 2)
1 | Cc1cccc2oc(O[C@@H]3C[C@H]4C(=O)N[C@]5(C(=O)NS(=O)(=O)C6CC6)C[C@H]5/C=C\CCCCC[C@H](NC(=O)OC(C)(C)C)C(=O)N4C3)nc12 [Compound 1031] | < 0.01 µM | 0.01 to 0.1 µM |  | 
2 | CC1(S(=O)(=O)NC(=O)[C@@]23C[C@H]2/C=C\CCCCC[C@H](Nc2cccc(C(F)(F)F)c2)C(=O)N2C[C@H](OC(=O)N4Cc5cccc(F)c5C4)C[C@H]2C(=O)N3)CC1 [Compound 1116] | < 0.01 µM | < 0.01 µM |  | 
3 | CC1(S(=O)(=O)NC(=O)[C@@]23C[C@H]2/C=C\CCCCC[C@H](Nc2cc(F)cc(C(F)(F)F)c2)C(=O)N2C[C@H](Oc4nc5ccc(Cl)cc5s4)C[C@H]2C(=O)N3)CC1 [Compound 351] |  |  | < 0.01 µM | 0.075 to 0.5 µM
4 | CC(C)(C)OC(=O)N[C@H]1CCCCC/C=C\[C@@H]2C[C@@]2(C(=O)NS(=O)(=O)C2CC2)NC(=O)[C@@H]2C[C@@H](Oc3nc4ccc(Cl)cc4o3)CN2C1=O [Compound 1036] | < 0.01 µM | > 0.1 µM |  | 
5 | COc1ccc2c(O[C@@H]3C[C@H]4C(=O)N[C@]5(C(=O)NS(=O)(=O)C6(C)CC6)C[C@H]5/C=C\CCCCC[C@H](Nc5ccccc5C)C(=O)N4C3)cc(-c3nc(C(C)C)cs3)nc2c1C [Compound 472] |  |  | < 0.01 µM | 0.01 to 0.075 µM
6 | CC(C)(C)OC(=O)N[C@H]1CCCCC/C=C\[C@@H]2C[C@@]2(C(=O)NOc2ccccc2)NC(=O)[C@@H]2C[C@@H](Oc3nc4ccccc4o3)CN2C1=O [Compound 1027] | > 0.1 µM | > 0.1 µM |  | 
7 | CC(C)n1c(O[C@@H]2C[C@H]3C(=O)N[C@]4(C(=O)NS(=O)(=O)C5(C)CC5)C[C@H]4/C=C\CCCCC[C@H](Nc4ccccc4)C(=O)N3C2)nc2ccccc21 [Compound 365] |  |  | < 0.01 µM | < 0.01 µM
8 | COc1ccc2c(O[C@@H]3C[C@H]4C(=O)N[C@]5(C(=O)NS(=O)(=O)C6(C)CC6)C[C@H]5/C=C\CCCCC[C@H](Nc5cccc(C#N)c5)C(=O)N4C3)cc(-c3nc(C(C)C)cs3)nc2c1C [Compound 476] |  |  | < 0.01 µM | < 0.01 µM
9 | Cc1ccc2nc(O[C@@H]3C[C@H]4C(=O)N[C@]5(C(=O)NS(=O)(=O)C6(C)CC6)C[C@H]5/C=C\CCCCC[C@H](Nc5cccc(C(F)(F)F)c5)C(=O)N4C3)sc2c1 [Compound 227] |  |  | < 0.01 µM | 0.075 to 0.5 µM
10 | CC(C)n1c(O[C@@H]2C[C@H]3C(=O)N[C@]4(C(=O)NS(=O)(=O)N(C)C)C[C@H]4/C=C\CCCCC[C@H](NC(=O)OC(C)(C)C)C(=O)N3C2)nc2ccc(F)cc21 [Compound 1136] | < 0.01 µM | < 0.01 µM |  | 
11 | CC1(S(=O)(=O)NC(=O)[C@@]23C[C@H]2/C=C\CCCCC[C@H](Nc2ccccc2)C(=O)N2C[C@H](Oc4nccc5ccccc45)C[C@H]2C(=O)N3)CC1 [Compound 221] |  |  | < 0.01 µM | 0.01 to 0.075 µM
12 | CC(=O)Nc1ccc(N[C@H]2CCCCC/C=C\[C@@H]3C[C@@]3(C(=O)NS(=O)(=O)C3(C)CC3)NC(=O)[C@@H]3C[C@@H](OC(=O)N4Cc5cccc(F)c5C4)CN3C2=O)cc1 [Compound 1121] | < 0.01 µM | 0.01 to 0.1 µM |  | 
13 | CC(=O)O[C@@H]1C[C@H]2C(=O)N[C@]3(C(=O)NS(=O)(=O)C4CC4)C[C@H]3/C=C\CCCCC[C@H](NC(=O)OC(C)(C)C)C(=O)N2C1 [Compound 1071] | < 0.01 µM | > 0.1 µM |  | 
14 | COc1ccc2c(O[C@@H]3C[C@H]4C(=O)N[C@]5(C(=O)NS(=O)(=O)N(C)C)C[C@H]5/C=C\CCCCC[C@H](Nc5cccc(F)c5)C(=O)N4C3)cc(-c3nc(C(C)C)cs3)nc2c1C [Compound 417] |  |  | < 0.01 µM | < 0.01 µM
15 | O=C(N[C@H]1CCCCC/C=C\[C@@H]2C[C@@]2(C(=O)NS(=O)(=O)C2CC2)NC(=O)[C@@H]2C[C@@H](OC(=O)N3Cc4cccc(F)c4C3)CN2C1=O)O[C@@H]1C[C@@H]2C[C@@H]2C1 [Compound 1085] | < 0.01 µM | < 0.01 µM |  | 
16 | COc1ccc2c(O[C@@H]3C[C@H]4C(=O)N[C@]5(C(=O)NS(=O)(=O)C6(C)CC6)C[C@H]5/C=C\CCCCC[C@H](Nc5cc(F)c(F)c(F)c5)C(=O)N4C3)cc(-c3nc(C(C)C)cs3)nc2c1C [Compound 480] |  |  | < 0.01 µM | 0.01 to 0.075 µM

Source: US8048862B2, “Macrocyclic inhibitors of hepatitis C virus replication” (priority 2008, dated 2011)
